According to paper PMC7930286 (Heliyon, 2021):

How the values were obtained:
α-amylase = experiment: Inhibitory assay of α-amylase; type: biochemical; settings: for Alpha-amylase % inhibition (mean ± SEM): n = 3
[1] = DPPH free radical scavenging assay; settings: for DPPH Percent inhibition (mean ± S.E.M): n = 3
[2] = ABTS free radical scavenging assay; settings: for ABTS percent inhibition (mean ± S.E.M): n = 3
[3] = molecular target: butyrylcholinesterase (BChE) (Homo sapiens, UniProt P06276); experiment: Anticholinesterase; type: biochemical; settings: for inhibition at 62.5 µg/mL: read-out: Percent BChE inhibition (mean ± SEM), 62.5 μg/mL; for inhibition at 125 µg/mL: read-out: Percent BChE inhibition (mean ± SEM), 125 μg/mL; for inhibition at 250 µg/mL: read-out: Percent BChE inhibition (mean ± SEM), 250 μg/mL; for inhibition at 500 µg/mL: read-out: Percent BChE inhibition (mean ± SEM), 500 μg/mL; for inhibition at 1000 µg/mL: read-out: Percent BChE inhibition (mean ± SEM), 1000 μg/mL
α-glucosidase = experiment: Inhibitory assay of α-glucosidase; type: biochemical; settings: for Alpha-glucosidase %inhibition (mean ± SEM): n = 3
[4] = Solubility description of isolated compounds; type: physicochemical
[5] = molecular target: acetylcholinesterase (AChE) (Homo sapiens, UniProt P22303); experiment: biochemical; settings: for inhibition at 62.5 µg/mL / inhibition at 250 µg/mL / inhibition at 500 µg/mL / inhibition at 1000 µg/mL: read-out: Percent AChE inhibition (mean ± SEM)
acetylcholinesterase (AChE), sequence (P22303 32-614, species assumed): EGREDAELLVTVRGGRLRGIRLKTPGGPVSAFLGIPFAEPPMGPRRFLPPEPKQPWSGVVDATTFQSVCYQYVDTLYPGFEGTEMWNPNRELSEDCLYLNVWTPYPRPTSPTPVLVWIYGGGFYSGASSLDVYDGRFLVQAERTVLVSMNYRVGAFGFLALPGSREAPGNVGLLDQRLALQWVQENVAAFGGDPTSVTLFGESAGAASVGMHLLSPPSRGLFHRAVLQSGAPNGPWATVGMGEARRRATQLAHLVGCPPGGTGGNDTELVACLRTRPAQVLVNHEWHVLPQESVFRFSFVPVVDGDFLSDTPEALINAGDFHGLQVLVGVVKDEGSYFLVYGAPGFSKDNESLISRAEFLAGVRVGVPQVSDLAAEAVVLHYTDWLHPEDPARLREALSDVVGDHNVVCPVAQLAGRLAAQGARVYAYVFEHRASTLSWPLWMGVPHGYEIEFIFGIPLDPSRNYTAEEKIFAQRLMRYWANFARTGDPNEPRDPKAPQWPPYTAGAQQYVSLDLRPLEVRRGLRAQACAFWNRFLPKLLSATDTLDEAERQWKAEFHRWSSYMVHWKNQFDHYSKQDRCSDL

butyrylcholinesterase (BChE), sequence (P06276 29-602, species assumed): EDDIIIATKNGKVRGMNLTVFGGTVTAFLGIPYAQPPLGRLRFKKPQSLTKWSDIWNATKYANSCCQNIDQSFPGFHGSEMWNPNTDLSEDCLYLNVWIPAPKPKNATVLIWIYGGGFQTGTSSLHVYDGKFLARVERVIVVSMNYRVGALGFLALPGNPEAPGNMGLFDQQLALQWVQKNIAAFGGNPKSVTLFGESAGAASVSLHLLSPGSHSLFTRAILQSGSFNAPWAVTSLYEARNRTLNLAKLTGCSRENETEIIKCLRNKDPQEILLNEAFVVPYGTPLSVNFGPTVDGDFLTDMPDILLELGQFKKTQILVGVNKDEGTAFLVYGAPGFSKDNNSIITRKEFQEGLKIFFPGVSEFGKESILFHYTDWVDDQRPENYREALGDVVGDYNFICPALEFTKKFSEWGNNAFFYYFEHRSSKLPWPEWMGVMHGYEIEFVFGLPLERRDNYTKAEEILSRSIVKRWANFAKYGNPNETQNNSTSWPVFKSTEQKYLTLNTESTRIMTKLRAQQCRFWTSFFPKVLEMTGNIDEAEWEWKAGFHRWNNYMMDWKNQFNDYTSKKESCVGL

Structure (SMILES)	Alpha-amylase % inhibition (mean ± SEM) (α-amylase; 125 μg/mL)	Alpha-amylase % inhibition (mean ± SEM) (α-amylase; 250 μg/mL)	Alpha-amylase % inhibition (mean ± SEM) (α-amylase; 500 μg/mL)	Alpha-amylase % inhibition (mean ± SEM) (α-amylase; 1000 μg/mL)	DPPH IC50 [1]	DPPH Percent inhibition (mean ± S.E.M) ([1]; 62.5 μg/mL)	DPPH Percent inhibition (mean ± S.E.M) ([1]; 125 μg/mL)	DPPH Percent inhibition (mean ± S.E.M) ([1]; 250 μg/mL)	DPPH Percent inhibition (mean ± S.E.M) ([1]; 500 μg/mL)	DPPH Percent inhibition (mean ± S.E.M) ([1]; 1000 μg/mL)	ABTS IC50 [2]	ABTS percent inhibition (mean ± S.E.M) ([2]; 62.5 μg/mL)	ABTS percent inhibition (mean ± S.E.M) ([2]; 250 μg/mL)	ABTS percent inhibition (mean ± S.E.M) ([2]; 500 μg/mL)	ABTS percent inhibition (mean ± S.E.M) ([2]; 1000 μg/mL)	inhibition at 62.5 µg/mL ([3]; n = 3)	inhibition at 125 µg/mL ([3]; n = 3)	inhibition at 250 µg/mL ([3]; n = 3)	inhibition at 500 µg/mL ([3]; n = 3)	Alpha-glucosidase IC50 (α-glucosidase)	further results
C[C@H]1O[C@H](O[C@H]2[C@H](O)[C@@H](O)[C@@H](O[C@H]3[C@H](O)[C@@H](O)C(O)O[C@@H]3CO)O[C@@H]2CO)[C@H](O)[C@@H](O)[C@@H]1N[C@H]1C=C(CO)[C@@H](O)[C@H](O)[C@H]1O (some centres unmarked) [Acarbose, reference compound]	57.0 ± 1.2%	66.4 ± 1.2%	77.1 ± 1.4%	92.1 ± 0.8%	–	–	–	–	–	–	–	–	–	–	–	–	–	–	–	–	–
O=C1O[C@H]([C@@H](O)CO)C(O)=C1O [Ascorbic acid, reference compound]	–	–	–	–	38 µg/mL	52.2 ± 2.3%	63.2 ± 1.1%	73.8 ± 2.2%	84.1 ± 0.4%	93.2 ± 0.1%	39 µg/mL	52.1 ± 1.1%	72.1 ± 0.4%	83.1 ± 1.1%	93.0 ± 0.7%	–	–	–	–	–	–
COc1ccc(C(=O)O)cc1OC [Compound VI, 3,4-dimethoxy benzoic acid]	50.3 ± 2.4∗∗ %	59.1 ± 1.9∗∗∗∗ %	71.3 ± 1.7∗∗∗∗ %	79.0 ± 3.2∗∗∗∗ %	67 µg/mL	48.2 ± 2.3 ^ns %	54.7 ± 2.1∗∗ %	63.7 ± 0.8∗∗∗∗ %	72.3 ± 0.3∗∗∗∗ %	82.1 ± 1.2∗∗∗∗ %	67 µg/mL	48.2 ± 1.3∗∗ %	61.1 ± 1.4∗∗∗ %	71.0 ± 1.6∗∗∗∗ %	81.2 ± 1.0∗∗∗∗ %	47 ± 1.1%	53.5 ± 1.6%	61.4 ± 0.3%	71.1 ± 1.6%	84 µg/mL	Percent BChE inhibition (mean ± SEM) ([3]; 1000 μg/mL, n = 3): 79.8 ± 1.4∗∗ %; Alpha-glucosidase %inhibition (mean ± SEM) (α-glucosidase; 125 μg/mL): 54.3 ± 1.5∗∗∗ %; Alpha-glucosidase %inhibition (mean ± SEM) (α-glucosidase; 250 μg/mL): 62.5 ± 2.4∗∗∗ %; Alpha-glucosidase %inhibition (mean ± SEM) (α-glucosidase; 500 μg/mL): 68.2 ± 1.7∗∗ %; Alpha-glucosidase %inhibition (mean ± SEM) (α-glucosidase; 1000 μg/mL): 84.6 ± 1.5∗∗∗∗ %; Alpha-amylase IC50 (α-amylase): 112 µg/mL; solubility (description) [4]: soluble in organic solvents; IC50 [5]: 494 µM; inhibition at 62.5 µg/mL [5]: 47.2 ± 1.5%; inhibition at 250 µg/mL [5]: 62.1 ± 2%; inhibition at 500 µg/mL [5]: 71.2 ± 1.8%; inhibition at 1000 µg/mL [5]: 80.7 ± 1.1%
CCCCCCCOc1ccc(C(=O)O)cc1 [Compound VII, 4-heptyloxy benzoic acid]	51.4 ± 1.5∗∗∗ %	61.2 ± 2.2∗ %	64.5 ± 2.8∗∗ %	73.3 ± 1.1∗∗∗∗ %	118 µg/mL	46.7 ± 2.1∗∗ %	51.9 ± 1.3∗∗ %	62.5 ± 1.1∗∗∗∗ %	71.2 ± 1.3∗∗∗∗ %	80.4 ± 1.1∗∗∗∗ %	115 µg/mL	46.1 ± 1.9∗∗ %	62.1 ± 1.3∗∗∗ %	71.2 ± 2.1∗∗∗∗ %	80.1 ± 1.0∗∗∗∗ %	47.2 ± 1.2%	53.4 ± 1.1%	62.1%	71.1 ± 0.8%	108 µg/mL	IC50 ([3]; BChE IC50): 381 µM; inhibition at 1000 µg/mL ([3]; n = 3): 80 ± 1.1%; Alpha-amylase IC50 (α-amylase): 110 µg/mL; solubility (description) [4]: soluble in organic solvents; IC50 [5]: 377 µM; inhibition at 62.5 µg/mL [5]: 47.8 ± 1.3%; inhibition at 250 µg/mL [5]: 62.3 ± 1.1%; inhibition at 500 µg/mL [5]: 71.5 ± 1.6%; inhibition at 1000 µg/mL [5]: 80.1 ± 1.2%
COc1ccc2c3c1O[C@H]1C[C@@H](O)C=C[C@@]31CCN(C)C2 [Galantamine, reference compound]	–	–	–	–	–	–	–	–	–	–	–	–	–	–	–	54.1 ± 1%	–	71.8 ± 1.5%	81.8 ± 1.4%	–	inhibition at 1000 µg/mL ([3]; n = 3): 92 ± 0.8%
